Reference: patent US8916575B2, “Quinazoline derivatives for the treatment of viral infections and further diseases” (Janssen R&D Ireland, priority 2011, dated 2014)
Marks after values point to notes of the source that are not given here.

Assays:
[1] = biological target: T1, human TLR7 (Homo sapiens, UniProt Q9NYK1); experiment: TLR7 wild type NFκB-luc cellular reporter assay; assay type: cell-based; design: unit not given here; conditions: for TLR7-wt (LEC): second part of table
T1 construct: expressed in transfected cells; host or cells: HEK293
T1 sequence (Q9NYK1 27-1049): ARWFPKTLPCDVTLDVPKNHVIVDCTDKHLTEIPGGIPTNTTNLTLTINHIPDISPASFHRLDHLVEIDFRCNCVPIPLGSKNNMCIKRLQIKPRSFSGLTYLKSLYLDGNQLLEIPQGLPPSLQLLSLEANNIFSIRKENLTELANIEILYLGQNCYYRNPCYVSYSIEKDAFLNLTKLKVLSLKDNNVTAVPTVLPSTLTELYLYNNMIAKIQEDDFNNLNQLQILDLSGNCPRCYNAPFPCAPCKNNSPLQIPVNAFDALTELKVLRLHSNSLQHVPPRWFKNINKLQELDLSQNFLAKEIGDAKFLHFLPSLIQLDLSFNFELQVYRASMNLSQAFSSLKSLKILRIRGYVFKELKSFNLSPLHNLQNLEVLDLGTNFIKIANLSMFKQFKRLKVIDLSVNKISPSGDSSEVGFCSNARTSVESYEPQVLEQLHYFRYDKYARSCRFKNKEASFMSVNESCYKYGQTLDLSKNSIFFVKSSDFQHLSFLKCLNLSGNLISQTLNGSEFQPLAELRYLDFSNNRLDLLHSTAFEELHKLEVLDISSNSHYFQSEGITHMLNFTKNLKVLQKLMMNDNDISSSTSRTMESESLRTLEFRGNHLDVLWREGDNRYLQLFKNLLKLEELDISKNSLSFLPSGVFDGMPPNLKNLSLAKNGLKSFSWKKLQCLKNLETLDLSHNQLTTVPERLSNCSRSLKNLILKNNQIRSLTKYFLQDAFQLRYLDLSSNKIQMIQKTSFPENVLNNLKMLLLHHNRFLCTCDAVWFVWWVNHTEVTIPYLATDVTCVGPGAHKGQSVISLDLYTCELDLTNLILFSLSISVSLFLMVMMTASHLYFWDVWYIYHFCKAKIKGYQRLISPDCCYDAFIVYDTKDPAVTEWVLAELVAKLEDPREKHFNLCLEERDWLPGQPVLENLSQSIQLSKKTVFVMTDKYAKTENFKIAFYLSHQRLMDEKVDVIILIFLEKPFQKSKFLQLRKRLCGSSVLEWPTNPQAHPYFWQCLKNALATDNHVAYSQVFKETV
Procedure: The ability of compounds to activate human TLR7 and/or TLR8 was assessed in a cellular reporter assay using HEK293 cells transiently transfected with a TLR7 or TLR8 expression vector and NFκB-luc reporter construct. In one instance the TLR expression construct expresses the respective wild type sequence or a mutant sequence comprising a deletion in the second leucine-rich repeat of the TLR.
Briefly, HEK293 cells were grown in culture medium (DMEM supplemented with 10% FCS and 2 mM Glutamine). For transfection of cells in 10 cm dishes, cells were detached with Trypsin-EDTA, transfected with a mix of CMV-TLR7 or TLR8 plasmid (750 ng), NFκB-luc plasmid (375 ng) and a transfection reagent and incubated 24 hours at 37° C. in a humidified 5% CO2 atmosphere. Transfected cells were then detached with Trypsin-EDTA, washed in PBS and resuspended in medium to a density of 1.67×10^5 cells/mL. Thirty microliters of cells were then dispensed into each well in 384-well plates, where 10 μL of compound in 4% DMSO was already present. […] Dose response curves were generated from measurements performed in quadruplicates. Lowest effective concentrations (LEC) values, defined as the concentration that induces an effect which is at least two fold above the standard deviation of the assay, were determined for each compound.

[2] = tested on: interferon-stimulated responsive elements (ISRE); experiment: Activation of ISRE promoter elements by conditioned media from PBMC (HEK-ISREluc); assay type: cell-based, human; design: unit not given here; conditions: compound applied to PBMCs, supernatant transferred to HEK-ISREluc cells, 24 hours
Procedure: The potential of compounds to induce IFN-I was also evaluated by measuring the activation of interferon-stimulated responsive elements (ISRE) by conditioned media from PBMC. The ISRE element of sequence GAAACTGAAACT is highly responsive to the STAT1-STAT2-IRF9 transcription factor, activated upon binding of IFN-I to their receptor IFNAR (Clontech, PT3372-5W). The plasmid pISRE-Luc from Clontech (ref. 631913) contains 5 copies of this ISRE element, followed by the firefly luciferase ORF. A HEK293 cell line stably transfected with pISRE-Luc (HEK-ISREluc) was established to profile of the conditioned PBMC cell culture media.
Briefly, PBMCs were prepared from buffy coats of at least two donors using a standard Ficoll centrifugation protocol. Isolated PBMCs were resuspended in RPMI medium supplemented with 10% human AB serum and 2×10^5 cells/well were dispensed into 384-well plates containing compounds (70 μL total volume). After overnight incubation, 10 μL of supernatant was transferred to 384-well plates containing 5×10^3 HEK-ISREluc cells/well in 30 μL (plated the day before). Following 24 hours of incubation, activation of the ISRE elements was measured by assaying luciferase activity using 40 μL/well Steady Lite Plus substrate (Perkin Elmer) and measured with ViewLux ultraHTS microplate imager (Perkin Elmer). The stimulating activity of each compound on the HEK-ISREluc cells was reported as LEC value, defined as the compound concentration applied to the PBMCs resulting in a luciferase activity at least two fold above the standard deviation of the assay. The LEC in turn indicates the degree of ISRE activation on transfer of a defined amount of PBMC culture medium. Recombinant interferon α-2a (Roferon-A) was used as a standard control compound.

[3] = HEK293 NFκB-luc reporter, 6 hours incubation

| Structure (SMILES) | TLR7-wt_LEC ([1]; HEK293 NFκB-luc reporter, 6 hours incubation, lowest effective concentration) | TLR7-wt_LEC ([1]; Assay run at 48 hours) | HEK-ISRE luc (LEC) [2] | TLR7-wt (LEC) [1, 3] |
| --- | --- | --- | --- | --- |
| CCCCNc1nc(N)nc2cc(OC)c(OC)cc12 [Compound 1] | 5.0 |  |  |  |
| CCCC[C@@H](CCO)Nc1nc(N)nc2cc(OC)c(OC)cc12 [Compound 3] |  | 4.0 * |  |  |
| CCCCNc1nc(N)nc2cccc(OC)c12 [Compound 9] |  |  | 0.10 | 0.41 |
| CCC[C@@H](CO)Nc1nc(N)nc2cccc(-c3ccccc3)c12 [Compound 10] |  |  | 2.14 | 6.08 |
| CCCCNc1nc(N)nc2cccc(OCCOC)c12 [Compound 11] |  |  | 0.12 | 0.08 |
| CCCCCNc1nc(N)nc2ccc(Br)cc12 [Compound 13] |  |  | 0.57 | 0.76 |
| CCCCNc1nc(N)nc2cc(C(=O)OC)ccc12 [Compound 17] |  |  | 0.75 | 5.10 |
| CCCCNc1nc(N)nc2cc(CO)ccc12 [Compound 18] |  |  | 0.05 | 0.13 |
| CCCCNc1nc(N)nc2ccc(-n3cnc(C)c3)cc12 [Compound 21] |  |  | 12.06 | >25 |
| CCCCNc1nc(N)nc2ccc(CO)cc12 [Compound 24] |  |  | 0.14 | 0.93 |
| CCC[C@@H](CCO)Nc1nc(N)nc2ccc(CC)cc12 [Compound 25] |  |  | 0.16 | 0.57 |
| CCC[C@@H](CCO)Nc1nc(N)nc2ccc(C(C)C)cc12 [Compound 26] |  |  | 3.07 | 3.60 |
| CCC[C@@H](CCO)Nc1nc(N)nc2ccc(Oc3ccc(C(F)(F)F)cc3Cl)cc12 [Compound 27] |  |  | 14.21 | 12.95 |
| CCCCNc1nc(N)nc2cc(Cl)c3c(c12)OCCO3 [Compound 28] |  |  | 1.11 | 2.06 |
| CCC[C@@H](CCO)Nc1nc(N)nc2ccc(Oc3ccc(C(F)(F)F)cc3)cc12 [Compound 29] |  |  | >23.81 | 11.13 |
| C#CCOc1cccc2nc(N)nc(NCCCC)c12 [Compound 30] |  |  | 0.04 | 0.05 |
| CCCCNc1nc(N)nc2cccc(OC(C)C)c12 [Compound 31] |  |  | 0.04 | 0.09 |
| CCCCNc1nc(N)nc2cccc(CCc3ccccc3)c12 [Compound 32] |  |  | 0.27 | 0.13 |
| CCC[C@@H](CO)Nc1nc(N)nc2cc(CO)ccc12 [Compound 33] |  |  | 0.14 | 1.88 |
| CCC[C@@H](CO)Nc1nc(N)nc2ccc(CO)cc12 [Compound 34] |  |  | 0.39 | 10.77 |
| CCCCNc1nc(N)nc2ccc(Oc3ccc(C(F)(F)F)cc3Cl)cc12 [Compound 35] |  |  | >23.81 | 4.15 |
| CCCCNc1nc(N)nc2cccc(C)c12 [Compound 36] |  |  | 0.32 | 0.47 |
| CCCCNc1nc(N)nc2c(F)cccc12 [Compound 37] |  |  | 0.07 | 0.16 |
| CCCCNc1nc(N)nc2ccc(F)cc12 [Compound 38] |  |  | 0.11 | 0.29 |
| CCCCNc1nc(N)nc2cc(OC)ccc12 [Compound 39] |  |  | 0.15 | 0.94 |
